Results on 52 compounds are retold here after PubChem BioAssay AID1996.

≈ marks a conversion by molar mass, not a printed value. Some results are limits rather than exact numbers.

The conditions of the data set: buffer; pH 7.4; 200.0 µM.
Usually solubility (kinetic) stands for solubility judged after dilution from a stock solution rather than from solid. Turning to `Fc1cccc(COc2ccccc2C(=S)N2CCCC2)c1`, the kinetic solubility came out at 0.015 mg/mL (≈ 47.6 µM).
Under `O=C(OCN1C(=O)C(=O)c2ccccc21)c1ccc(Cl)cc1` stands 0.044 mg/mL (≈ 139 µM); under `CC(C)CC(=O)NC(c1ccccc1)c1c(O)ccc2ccccc12` (configuration not stated), below 0.0007 mg/mL; under `CCOC(=O)Cc1ccc(NC(=O)c2ccc([N+](=O)[O-])cc2)cc1`, 0.001 mg/mL (≈ 3.05 µM).
As to `COc1ccc(C(=O)NCC(=O)N2CCc3ccccc3C2)cc1`, the kinetic solubility is above 0.0487 mg/mL.
In turn, `COc1ccc(C2=COc3ccccc3C(=O)N2)cc1` showed a kinetic solubility of 0.0114 mg/mL (≈ 42.7 µM).
With `CC(C)(C)OC(=O)N1CCN(c2ccc([N+](=O)[O-])cc2)CC1` the figure was 0.0019 mg/mL (≈ 6.18 µM).
With `CCN1CCN(C(=O)COc2ccc3oc4c(c3c2)CCCC4)CC1` the figure was above 0.0514 mg/mL; with `N#Cc1nc(-c2cccc3ccccc23)oc1NCC1CCCO1` (configuration not stated), 0.0033 mg/mL (≈ 10.3 µM); with `CSc1sc(C(=O)N(C)C)cc1S(=O)(=O)C(C)C`, above 0.0461 mg/mL.
Under `Cc1ccccc1-c1nc2ccccc2c(=O)n1C` stands 0.0358 mg/mL (≈ 143 µM).
In the case of `CCOc1ccc(S(=O)(=O)Nc2ccc3c(c2)OCO3)cc1`, the solubility (kinetic) is 0.0454 mg/mL (≈ 141 µM).
Under `COc1cc(/C=C/C(=O)OCC(=O)NC2CC2)cc(OC)c1OC` stands above 0.0503 mg/mL; under `COc1ccc(S(=O)(=O)N2CCCc3ccccc32)cc1OC`, 0.0284 mg/mL (≈ 85.2 µM).
For `Cc1cccc(Nc2nc(C)cc(C)n2)c1.Cl`, the kinetic solubility was found to be 0.0201 mg/mL.
Under `CC(C)(C)CC(=O)Nc1ccc(-c2cn3cccnc3n2)cc1` stands 0.0403 mg/mL (≈ 131 µM); under `COc1ccc(CNC(=O)c2cc(=O)c3ccccc3o2)cc1`, 0.012 mg/mL (≈ 38.8 µM).
Under `C/C(=N\O)c1cc(Cl)cc(Cl)c1O` stands 0.0305 mg/mL (≈ 139 µM); under `CCOc1ccccc1OC(=O)CN1C(=O)c2ccccc2C1=O`, 0.0162 mg/mL (≈ 49.8 µM).
Under `Cl.c1csc(CNCc2ccncc2)c1` stands above 0.0361 mg/mL; under `O=C(O)C1CSC(c2ccc(O)c([N+](=O)[O-])c2)N1` (configuration not stated), above 0.0405 mg/mL.
Regarding `COc1ccc(C2=NOC(C(=O)Nc3cccnc3)C2)cc1OC` (configuration not stated), the solubility (kinetic) is 0.0468 mg/mL (≈ 143 µM).
With `O=C(CN1CCCCCC1)Nc1ccc(Br)cc1[N+](=O)[O-]` the figure was 0.0004 mg/mL (≈ 1.12 µM); with `CC1Nc2ccc(C(=O)NC3CCCCC3)cc2NC1=O` (configuration not stated), 0.0192 mg/mL (≈ 66.8 µM).
The compound `CCc1ccc(NC(=O)NCc2ccccn2)cc1` yielded a kinetic solubility above 0.0383 mg/mL.
Under `CSc1ncccc1C(=O)OCC(=O)NC(C)C` stands above 0.0402 mg/mL; under `Cl.OCCN1CCN(CC/C=C2/c3ccccc3Sc3ccc(C(F)(F)F)cc32)CC1`, 0.0601 mg/mL.
With `Cc1cccc(C)c1OCCN1CCOCC1.O=C(O)C(=O)O`, the solubility (kinetic) amounted to 0.0421 mg/mL.
Under `COc1ccccc1N1CCN(C2CCC(C)CC2)CC1` (configuration not stated) stands 0.0317 mg/mL (≈ 110 µM); under `CCOc1ccc(NC(=O)Nc2ccccc2SC)cc1`, 0.0014 mg/mL (≈ 4.63 µM); under `CN1CCCN(C(=O)c2c(F)cccc2Cl)CC1`, above 0.0406 mg/mL.
Under `Cc1ccc(C)c(N2C(=O)CC(Cc3ccc(Cl)cc3)C2=O)c1` (configuration not stated) stands 0.0176 mg/mL (≈ 53.7 µM).
With `CC(C)Oc1ccccc1Cn1c(=O)oc2ccccc21` the figure was 0.009 mg/mL (≈ 31.8 µM); with `CC(=O)Nc1ccc(C(=O)OCC(=O)N2CCCC2=O)cc1`, above 0.0456 mg/mL; with `O=C1CCC(C(=O)OCC(=O)c2ccccc2)N1` (configuration not stated), above 0.0371 mg/mL.
Compound `COc1ccccc1N1CC(C(=O)NC2CCCCCC2)CC1=O` (configuration not stated) displayed a kinetic solubility above 0.0496 mg/mL.
Under `CCN(CC)CCCNc1cc(C)nc2cc(-c3cccs3)nn12` stands above 0.0515 mg/mL; under `CC(=O)Nc1cccc(C(=O)Nc2cccc3ncccc23)c1`, 0.0403 mg/mL (≈ 132 µM); under `S=C(NCCC1=CCCCC1)NCc1ccco1`, 0.0388 mg/mL (≈ 147 µM).
Under `COc1cc(NS(=O)(=O)c2ccc(NC(=S)NC(C)=O)cc2)nc(OC)n1` stands above 0.0617 mg/mL; under `Cl.O=C(O)C1=CCNCC1`, above 0.0245 mg/mL; under `CCc1ccc(OCC(=O)NC(C)C)cc1`, 0.0309 mg/mL (≈ 140 µM).
Under `[Br-].c1ccc(Cc2cc[n+](Cc3ccccn3)cc2)cc1` stands above 0.0512 mg/mL; under `CC(=O)c1cccc(NC(=O)C(NC(C)C)c2ccccc2)c1` (configuration not stated), above 0.0466 mg/mL; under `COc1cccc(NC(=O)CN(C)C(=O)[C@@H]2CCCN2C(=O)c2cccs2)c1`, above 0.0602 mg/mL.
In turn, `Cc1cccc(N2C(=NC(=O)c3ccccc3)SC3CS(=O)(=O)CC32)c1` (configuration not stated) displayed a kinetic solubility below 0.0004 mg/mL.
With `CCOC(=O)N1CCN(C(=S)Nc2ccccc2C(C)C)CC1` the figure was above 0.0503 mg/mL; with `CN(c1ccccc1)S(=O)(=O)c1cc(C(=O)N2CCN(c3ncccn3)CC2)ccc1Cl`, 0.0335 mg/mL (≈ 71 µM).
With `CN(C(=O)c1ccc(N2CCOCC2)c([N+](=O)[O-])c1)C1CCCCC1` the figure was above 0.0521 mg/mL.
`O=C(Nc1ccc(C(=O)O)cc1)Nc1cccc2ccccc12` registered a kinetic solubility above 0.0459 mg/mL.
`O=C1CC(c2ccccc2)CC2=C1C=Nc1ccccc1N2` (configuration not stated): the solubility (kinetic) came out at 0.037 mg/mL (≈ 128 µM).
With `CC(=O)Nc1ccc(/C=C(\C#N)S(=O)(=O)c2ccc(C)cc2)cc1` the figure was 0.0052 mg/mL (≈ 15.3 µM).
